Experimental data from ChEMBL document CHEMBL1201862, “PubChem BioAssay data set” (2004).
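Following 48 hours of exposure in 96-well plates, responses at five concentrations were used to interpolate endpoints linearly. The concentration for 50% growth inhibition is given as GI50.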 The source made the active and inactive calls. No stated cut-off is given here; in the data, active = GI50 up to about 1.1 µM and inactive = higher.

Legend:
Experiment in all cases: NCI anticancer screen, dose series, 48 h
NCI-H522 = test system: NCI-H522
SNB-19 = test system: SNB-19
HT-29 = test system: HT-29
OVCAR-3 = test system: OVCAR-3
SF-295 = test system: SF-295
MOLT-4 = test system: MOLT-4
SW-620 = test system: SW-620
HOP-92 = test system: HOP-92
HCT-116 = test system: HCT-116
OVCAR-4 = test system: OVCAR-4
UACC-62 = test system: UACC-62
OVCAR-8 = test system: OVCAR-8
SK-MEL-28 = test system: SK-MEL-28
ACHN = test system: ACHN
TK-10 = test system: TK-10
COLO 205 = test system: COLO 205
RPMI-8226 = test system: RPMI-8226
HCT-15 = test system: HCT-15

Question: Which GI50 (NCI-H522) does the source give for COc1ccc2nc3ccccc3c(NCCN(CCCl)CCCl)c2c1 here?
Answer: 0.348 µM (active)

Question: What about the GI50 (SNB-19) of the same compound?
Answer: 0.656 µM (active)

Question: And the GI50 (HT-29)?
Answer: 0.543 µM (active)

Question: And the GI50 (OVCAR-3)?
Answer: 0.269 µM (active)

Question: And the GI50 (SF-295)?
Answer: 0.614 µM (active)

Question: And the GI50 (MOLT-4)?
Answer: 0.0592 µM (active)

Question: And the GI50 (SW-620)?
Answer: 0.238 µM (active)

Question: What about the GI50 (HOP-92) of the same compound?
Answer: 0.476 µM (active)

Question: What about the GI50 (HCT-116) of the same compound?
Answer: 0.272 µM (active)

Question: And the GI50 (OVCAR-4)?
Answer: 1.08 µM (active)

Question: And the GI50 (UACC-62)?
Answer: 1 µM (active)

Question: What about the GI50 (OVCAR-8) of the same compound?
Answer: 0.649 µM (active)

Question: What about the GI50 (SK-MEL-28) of the same compound?
Answer: 2.36 µM (inactive)

Question: What about the GI50 (ACHN) of the same compound?
Answer: 0.336 µM (active)

Question: What about the GI50 (TK-10) of the same compound?
Answer: 1.76 µM (inactive)

Question: What does the source list for CCN(CC)c1ccc2c(c1)N=C1N=CC=CN1C2(c1ccc(N(C)C)cc1)c1ccc(N(C)C)cc1?
Answer: GI50 (NCI-H522): 1.74 µM (inactive); GI50 (SNB-19): 11.4 µM (inactive); GI50 (HT-29): 3.12 µM (inactive); GI50 (OVCAR-3): 3.16 µM (inactive); GI50 (SF-295): 3.64 µM (inactive); GI50 (COLO 205): 2.36 µM (inactive); GI50 (MOLT-4): 2.47 µM (inactive); GI50 (HOP-92): 2.82 µM (inactive); GI50 (HCT-116): 3.85 µM (inactive); GI50 (UACC-62): 10.7 µM (inactive); GI50 (OVCAR-8): 4.19 µM (inactive); GI50 (RPMI-8226): 2.9 µM (inactive); GI50 (HCT-15): 10.9 µM; GI50 (SK-MEL-28): 10.8 µM (inactive); GI50 (ACHN): 4.5 µM (inactive); GI50 (TK-10): 13 µM (inactive)

Question: Which GI50 (NCI-H522) does the source give for CNS(=O)(=O)NNS(=O)(=O)c1ccc2ccccc2c1 here?
Answer: > 100 µM (inactive)

Question: And the GI50 (SNB-19)?
Answer: > 100 µM (inactive)

Question: And the GI50 (HT-29)?
Answer: > 100 µM (inactive)

Question: And the GI50 (OVCAR-3)?
Answer: > 100 µM (inactive)

Question: What about the GI50 (SF-295) of the same compound?
Answer: > 100 µM (inactive)

Question: What about the GI50 (COLO 205) of the same compound?
Answer: > 100 µM (inactive)

Question: And the GI50 (MOLT-4)?
Answer: > 100 µM (inactive)

Question: What about the GI50 (SW-620) of the same compound?
Answer: > 100 µM (inactive)

Question: What about the GI50 (HCT-116) of the same compound?
Answer: > 100 µM (inactive)

Question: What about the GI50 (OVCAR-4) of the same compound?
Answer: > 100 µM (inactive)

Question: And the GI50 (UACC-62)?
Answer: > 100 µM (inactive)

Question: What about the GI50 (OVCAR-8) of the same compound?
Answer: > 100 µM (inactive)

Question: And the GI50 (RPMI-8226)?
Answer: > 100 µM (inactive)

Question: And the GI50 (HCT-15)?
Answer: > 100 µM

Question: What about the GI50 (SK-MEL-28) of the same compound?
Answer: > 100 µM (inactive)

Question: What about the GI50 (ACHN) of the same compound?
Answer: > 100 µM (inactive)

Question: And the GI50 (TK-10)?
Answer: > 100 µM (inactive)

Question: What does the source list for c1ccc(-c2nnc3nn4c(-c5ccccc5)cnnc4c3c2-c2ccccc2)cc1?
Answer: GI50 (SNB-19): 25.2 µM (inactive); GI50 (HT-29): 95.3 µM (inactive); GI50 (OVCAR-3): 26.4 µM (inactive); GI50 (SF-295): 74 µM (inactive); GI50 (MOLT-4): > 100 µM (inactive); GI50 (SW-620): > 100 µM (inactive); GI50 (HOP-92): 59.8 µM (inactive); GI50 (HCT-116): 63.4 µM (inactive); GI50 (OVCAR-4): 12.9 µM (inactive); GI50 (UACC-62): 32.1 µM (inactive); GI50 (OVCAR-8): 76.4 µM (inactive); GI50 (RPMI-8226): > 100 µM (inactive); GI50 (HCT-15): > 100 µM; GI50 (SK-MEL-28): 64 µM (inactive); GI50 (ACHN): 55.6 µM (inactive); GI50 (TK-10): 19.2 µM (inactive)

Question: For COC(=O)C1=C(c2ccc(OC)c(OC)c2)OC(c2ccc(OC)c(OC)c2)C1 (stereo not given), which GI50 (HT-29) is on record?
Answer: 22.3 µM (inactive)

Question: And the GI50 (OVCAR-3)?
Answer: 33.9 µM (inactive)

Question: What about the GI50 (SF-295) of the same compound?
Answer: 27.6 µM (inactive)

Question: And the GI50 (COLO 205)?
Answer: 17.1 µM (inactive)

Question: What about the GI50 (MOLT-4) of the same compound?
Answer: 8.17 µM (inactive)

Question: What about the GI50 (SW-620) of the same compound?
Answer: 35.3 µM (inactive)

Question: What about the GI50 (HOP-92) of the same compound?
Answer: 13.8 µM (inactive)

Question: What about the GI50 (HCT-116) of the same compound?
Answer: 27.3 µM (inactive)

Question: And the GI50 (OVCAR-4)?
Answer: 27.9 µM (inactive)

Question: And the GI50 (UACC-62)?
Answer: 35.6 µM (inactive)

Question: What about the GI50 (OVCAR-8) of the same compound?
Answer: 29.5 µM (inactive)

Question: And the GI50 (RPMI-8226)?
Answer: 37.6 µM (inactive)

Question: What about the GI50 (HCT-15) of the same compound?
Answer: 25.2 µM

Question: What about the GI50 (SK-MEL-28) of the same compound?
Answer: 45.1 µM (inactive)

Question: And the GI50 (ACHN)?
Answer: 25.4 µM (inactive)

Question: What about the GI50 (TK-10) of the same compound?
Answer: 43.2 µM (inactive)

Question: Which results are given for CC[C@H](C)C(=O)O[C@H]1C[C@@H](C)C=C2C=C[C@H](C)[C@H](CC[C@@H]3C[C@@H](O)CC(=O)O3)[C@H]21 [LOVASTATIN]?
Answer: GI50 (HT-29): 11.6 µM (inactive); GI50 (OVCAR-3): > 30 µM (inactive); GI50 (COLO 205): 5.73 µM (inactive); GI50 (MOLT-4): 26.8 µM (inactive); GI50 (SW-620): 7.36 µM (inactive); GI50 (HOP-92): 0.0308 µM (active); GI50 (OVCAR-4): > 30 µM (inactive); GI50 (UACC-62): 1.53 µM (inactive); GI50 (OVCAR-8): 7.83 µM (inactive); GI50 (RPMI-8226): > 30 µM (inactive); GI50 (HCT-15): 3.12 µM; GI50 (SK-MEL-28): 25 µM (inactive); GI50 (ACHN): 1.76 µM (inactive); GI50 (TK-10): 16.2 µM (inactive)

Question: With COC(=O)/C=C(\C)CC/C=C(\C)CCC(O)C(C)(C)O (stereo not given) as the compound, how does the GI50 (SNB-19) read?
Answer: > 100 µM (inactive)

Question: What about the GI50 (HT-29) of the same compound?
Answer: 31.4 µM (inactive)

Question: And the GI50 (OVCAR-3)?
Answer: 17.9 µM (inactive)

Question: What about the GI50 (SF-295) of the same compound?
Answer: 23.1 µM (inactive)

Question: And the GI50 (COLO 205)?
Answer: 19.7 µM (inactive)

Question: And the GI50 (MOLT-4)?
Answer: 15.2 µM (inactive)

Question: What about the GI50 (SW-620) of the same compound?
Answer: 22.7 µM (inactive)

Question: And the GI50 (HOP-92)?
Answer: 29.9 µM (inactive)

Question: What about the GI50 (HCT-116) of the same compound?
Answer: 20.8 µM (inactive)

Question: What about the GI50 (OVCAR-4) of the same compound?
Answer: 48.5 µM (inactive)

Question: What about the GI50 (UACC-62) of the same compound?
Answer: 25.1 µM (inactive)

Question: And the GI50 (OVCAR-8)?
Answer: 25.1 µM (inactive)

Question: What about the GI50 (HCT-15) of the same compound?
Answer: 23.3 µM

Question: And the GI50 (SK-MEL-28)?
Answer: 17.9 µM (inactive)

Question: And the GI50 (ACHN)?
Answer: 25.6 µM (inactive)

Question: What about the GI50 (TK-10) of the same compound?
Answer: 45 µM (inactive)
